Measurements reported in BindingDB's records for doi:10.1074/jbc.M110.156463 (Merck Research Laboratories, 2011).

Molecular target: T1, 3-phosphoinositide-dependent protein kinase 1 (Homo sapiens, UniProt O15530)
T1 sequence (O15530 whole entry): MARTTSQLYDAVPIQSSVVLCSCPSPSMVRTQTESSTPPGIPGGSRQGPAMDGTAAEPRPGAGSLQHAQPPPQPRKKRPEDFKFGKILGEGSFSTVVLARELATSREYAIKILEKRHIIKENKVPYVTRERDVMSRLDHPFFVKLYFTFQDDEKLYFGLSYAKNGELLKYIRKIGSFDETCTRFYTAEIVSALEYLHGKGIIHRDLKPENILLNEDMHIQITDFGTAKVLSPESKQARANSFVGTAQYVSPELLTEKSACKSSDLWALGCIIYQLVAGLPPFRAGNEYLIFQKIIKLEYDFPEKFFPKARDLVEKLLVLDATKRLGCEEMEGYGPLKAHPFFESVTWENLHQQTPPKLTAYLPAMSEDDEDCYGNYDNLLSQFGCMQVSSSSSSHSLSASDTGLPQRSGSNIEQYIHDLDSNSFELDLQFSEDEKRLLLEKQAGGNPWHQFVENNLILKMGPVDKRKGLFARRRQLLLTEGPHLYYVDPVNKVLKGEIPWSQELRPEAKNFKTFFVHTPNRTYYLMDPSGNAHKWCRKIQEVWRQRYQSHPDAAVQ
Experiment: Proliferation Assay
Experimental: Enzyme potency (PDK1 EC50)was determined using recombinant, purified full-length human PDK1 enzyme and AKT-Thr-308-tide as substrate.

For `Cc1[nH]nc2c1c(=O)n(CCCN)c1ccc(Cl)cc21`, which EC50 is on record?
The EC50 was 0.009 µM.

With `O=C(NCCCNc1nc(Nc2cccc(NC(=O)N3CCCC3)c2)ncc1I)c1cccs1` [N-{3-[(5-iodo-4-{[3-(thiophen-2-ylformamido)propyl]amino}pyrimidin-2-yl)amino]phenyl}pyrrolidine-1-carboxamide] as the compound, how does the EC50 read?
The EC50 was 0.026 µM.

For `Cc1[nH]nc(-c2nc3cc4c[nH][nH]c4cc3n2)c1C(=O)NC1CCNCC1` [PDK1 inhibitor, 6], which EC50 is on record?
The EC50 was 0.012 µM.

How did the EC50 turn out when `COc1ccc(C#Cc2ccc3ncc4ncn(-c5ccc(CCN)cc5)c4c3c2)cc1` [PDK1 inhibitor, 4] was run?
Its EC50 is 0.2 µM.

How did the EC50 turn out when `CC(C)(C)c1nc2c3ccc(F)cc3c3c(=O)[nH]ccc3c2[nH]1` [Jak Inhibitor 1] was run?
Its EC50 is 0.001 µM.

`CC(Nc1nc2c(C#CC3CC3)c[nH]c(=O)c2c2cc(-c3cn[nH]c3)ccc12)C(C)(C)C` (stereo unspecified) [PDK1 inhibitor, 2] was tested. Which EC50 did it give?
The EC50 was 0.009 µM.
